# Assay results as given in patent US8633204B2 (Pfizer Inc., priority 2006, dated 2014).
# Tested on: PI3-K in BT20 cells (phosphorylation of AKT at serine 473)
# Assay: PI3-Kα Cellular Assay (AKT Ser473 phosphorylation ELISA in BT20 cells)
# Format: cell-based, human
# Conditions: Homo sapiens, BT-20, pAKT Ser473 ELISA, 1 hour incubation
# Protocol: Compounds of the present invention were evaluated for potency against PI3-K using a cellular assay as follows.
# Healthy growing human breast cancer cells BT20 (PI3K mutated) are used for the assay. BT20 cells are grown in 10% FBS+GLN (1:100)+PS (1:100)+1 mM Sodium Pyruvate+0.1 mM Sodium Bicarbonate+Non-Essential Amino Acids Solution (1:100) MEM medium (MEM+all). […] The cells are re-suspended in 10% FBS MEM all and are centrifuged down at 1400 rpm for 5 minutes. The cells are re-suspended in 0.5% FBS MEM all and are counted on a cell counter. The cells are seeded at 25,000 cells/well in volume of 100 μL/well in 0.5% FBS MEM all in a 96 well flat-bottom plate. The negative control wells receive only 100 μL of 0.5% FBS MEM all medium without cells. The plate is incubated overnight in a cell culture incubator with 5% CO2 at 37° C.
# On day 2, testing compounds are prepared in 0.5% FBS MEM all medium and serially diluted at 1:3 for 11 test concentrations. Each concentration of the compounds is tested in duplicate. The compound solutions are added at 25 μL/well to the corresponded wells in cell plate, and 25 μL/well of the vehicle (0.5% DMSO in 0.5% FBS MEM all) is added to the negative control wells (no cells) and the positive control wells (cells without compounds). The plate is incubated for 1 hour in a cell culture incubator with 5% CO2 at 37° C. After 1 hour of incubation, the medium is removed, 100 μL/well of cell lysis buffer is added into the cell plate, and shake for 15 minutes at room temperature. […] After 1 hour, empty the contents of the wells, wash the plate 4 times with the wash buffer, and add 100 μL of TMB substrate solution (catalog #T0440, Sigma) into each well, and incubate with gentle shaking at room temperature for […]. After 15 minutes of color development, add 100 μL of stop solution (1N hydrochloric acid) to each well, and read the plate at 450 nm on ELISA plate reader.
row,SMILES,IC50
1,"CNc1nc(C)c2cc(-c3cnc(N)c(OC[C@H](C)N)n3)c(=O)n(C3CCCC3)c2n1 [Compound 103, 6-(5-amino-6-{[(2S)-2-aminopropyl]oxy}pyrazin-2-yl)-8-cyclopentyl-4-methyl-2-(methylamino)pyrido[2,3-d]pyrimidin-7(8H)-one]",2.33 µM
2,"CNc1nc(C)c2cc(-c3cc(CN)ccc3F)c(=O)n(C3CCCC3)c2n1 [Compound 104, 6-(5-(Aminomethyl)-2-fluorophenyl)-8-cyclopentyl-4-methyl-2-(methylamino)pyrido[2,3-d]pyrimidin-7(8H)-one]",10 µM
3,"CNc1nc(C)c2cc(-c3cnn(CCO)c3)c(=O)n(C3CCCC3)c2n1 [Compound 105, 8-Cyclopentyl-6-(1-(2-hydroxyethyl)-1H-pyrazol-4-yl)-4-methyl-2-(methylamino)pyrido[2,3-d]pyrimidin-7(8H)-one]",0.234 µM
4,"Cc1nc(N)nc2c1cc(-c1ccc3c(c1)OCCO3)c(=O)n2[C@H]1CC[C@H](O)CC1 [Compound 261, 2-amino-6-(2,3-dihydro-1,4-benzodioxin-6-yl)-8-(trans-4-hydroxycylohexyl)-4-methylpyrido[23-d]pyrimidin-7(8H)-one]",0.0348 µM
5,"COc1ncc(-c2cc3c(C)nc(N)nc3n([C@H]3CC[C@@H](O)CC3)c2=O)cn1 [Compound 272, 2-amino-8-(cis-4-hydroxycyclohexyl)-6-(2-methoxypyrimidin-5-yl)-4-methylpyrido[2,3-d]pyrimidin-7(8H)-one]",0.0437 µM
6,"COc1ncc(-c2cc3c(C)nc(N)nc3n([C@H]3CC[C@H](O)CC3)c2=O)cn1 [Compound 273, 2-amino-8-(trans-4-hydroxycyclohexyl)-6-(2-methoxypyrimidin-5-yl)-4-methylpyrido[2,3-d]pyrimidin-7(8H)-one]",0.0251 µM
7,"CNc1nc(C)c2cc(-c3ccc(OC)nc3)c(=O)n([C@H]3CC[C@H](O)CC3)c2n1 [Compound 274, 8-(trans-4-hydroxycyclohexyl)-6-(6-methoxypyridin-3-yl)-4-methyl-2-(methylamino)pyrido[2,3-d]pyrimidin-7(8H)-one]",0.00781 µM
8,"CNc1nc(C)c2cc(C(=O)Nc3ccccn3)c(=O)n(C3CCCC3)c2n1 [Compound 282, 8-cyclopentyl-4-methyl-2-(methylamino)-7-oxo-N-pyridin-2-yl-7,8-dihydropyrido[2,3-d]pyrimidine-6-carboxamide]",0.265 µM
9,"COc1ccc(-c2cc3c(C)nc(N)nc3n([C@H]3CC[C@@H](OCCO)CC3)c2=O)cn1 [Compound 285, 2-Amino-8-(cis-4-(2-hydroxyethoxy)cyclohexyl)-6-(6-methoxypyridin-3-yl)-4-methylpyrido[2,3-d]pyrimidin-7(8H)-one]",0.018 µM
10,"COc1ccc(-c2cc3c(C)nc(N)nc3n([C@H]3CC[C@H](OCCO)CC3)c2=O)cn1 [Compound 286, 2-amino-8-[trans-4-(2-hydroxyethoxy)cyclohexyl]-6-(6-methoxypyridin-3-yl)-4-methylpyrido[2,3-d]pyrimidin-7(8H)-one]",0.0131 µM
11,"Cc1nc(N)nc2c1cc(-c1cnc3ccccc3c1)c(=O)n2[C@H]1CC[C@H](OCCO)CC1 [Compound 289, 2-amino-8-(trans-4-(2-hydroxyethoxy)cyclohexyl]-4-methyl-6-quinolin-3-ylpyrido[2,3-d]pyrimidin-7(8H)-one]",0.0295 µM
12,"Cc1nc(N)nc2c1cc(-c1cnc3ccccc3c1)c(=O)n2[C@H]1CC[C@@H](OCCO)CC1 [Compound 295, 2-amino-8-[cis-4-(2-hydroxyethoxy)cyclohexyl]-4-methyl-6-quinolin-3-ylpyrido[2,3-d]pyrimidin-7(8H)-one]",0.0962 µM
13,"Cc1nc(N)nc2c1cc(-c1ccn[nH]1)c(=O)n2[C@H]1CC[C@H](OCCO)CC1 [Compound 301, 2-amino-8-[trans-4-(2-hydroxyethoxy)cyclohexyl]-4-methyl-6-(1H-pyrazol-3-yl)pyrido[2,3-d]pyrimidin-7(8H)-one]",0.137 µM
14,COc1ccc(-c2cc3c(C)nc(N)nc3n([C@H]3CC[C@@H](OCC(N)=O)CC3)c2=O)cn1 [Compound 303],0.0205 µM
15,"COc1ncc(-c2cc3c(C)nc(N)nc3n([C@H]3CC[C@@H](OCC(N)=O)CC3)c2=O)cn1 [Compound 307, 2-({cis-4-(2-amino-6-(2-methoxypyrimidin-5-yl)-4-methyl-7-oxopyrido[2,3-d]pyrimidin-8(7H)-yl]cyclohexyl}oxy)acetamide]",0.0829 µM
16,"COc1ccc(-c2cc3c(C)nc(N)nc3n([C@H]3CC[C@H](OCC(N)=O)CC3)c2=O)cn1 [Compound 309, 2-({trans-4-[2-amino-6-(6-methoxypyridin-3-yl)-4-methyl-7-oxopyrido[2,3-d]pyrimidin-8(7H)-yl]cyclohexyl}oxy)acetamide]",0.0193 µM
17,"COc1ncc(-c2cc3c(C)nc(N)nc3n([C@H]3CC[C@H](OCC(N)=O)CC3)c2=O)cn1 [Compound 311, 2-({trans-4-[2-amino-6-(2-methoxypyrimidin-5-yl)-4-methyl-7-oxopyrido[2,3-d]pyrimidin-8(7H)-yl]cyclohexyl}oxy)acetamide]",0.0519 µM

# Biological target: PI3-Kα (Mus musculus (Mouse), UniProt P42337)
# Assay: PI3-Kα Biochemical Assay (fluorescence polarization kinase assay)
# Conditions: not given
# Protocol: Compounds of the present invention were evaluated for potency against PI3-Kα using an in vitro kinase assay. PI3-Kα activity is measured in vitro by determining the level of phosphorylation of the substrate PI(4,5)P2. The formation of product PI(3,4,5)P3 is monitored by binding to the Grip1 PH domain in a ligand displacement fluorescence polarization (FP) assay, in which the TAMRA-labeled PI(3,4,5)P3 complexed with Grip1 PH domain is displaced by PI(3,4,5)P3 formed in the PI3-Kα reaction resulting in a decrease in FP signal. Mouse PI3-Kα P110 and P85 subunits were co-expressed in insect cells and co-purified to homogeneity. PI(4,5)P2 were obtained from Cayman. TAMRA-labeled PI(3,4,5)P3 were from Echelon, Grip1 PH domain from Dundee and other reagents were from Sigma.
# All assays were performed in a Corning solid black 96-well half area plate using LJL Analyst (Molecular Devices) at room temperature. The assay buffer contained 50 mM HEPES, pH 7.4, 150 mM NaCl, 5 mM DTT, and 0.05% CHAPS. Dry powder PI(4,5)P2 was dissolved in 50 mM TRIS, pH 8 to make 1 mM stock solution. The PI(4,5)P2 stock solution was then diluted in the assay buffer to 60 μM, and sonicated for 30 sec before use. To the assay plate, the following reagents were added in sequence: 10 μL of 60 μM PI(4,5)P2, 5 μL of 4 nM PI3-Kα, 2 μL of compound in 25% DMSO, 3 μL of mixture containing 200 μM ATP and 33 mM MgCl2. The final volume for the reaction was 20 μL. The reaction mixture was incubated at room temperature for 35 min. The reaction was then stopped by 20 μL of 20 mM EDTA. […] The FP signal was allowed to develop for 40 min before reading on a LJL analyst at excitation 535 nm and emission 580 nm.
# The percentage of inhibition was calculated based on the following equation % inhibition=[1−(FPcompound−FPmax)/(FPmin−FPmax)]×100, where FPcompound is the FP reading at a given compound concentration, FPmin is the FP signal of the PI3-Kα reaction in the absence of a compound, and FPmax is the background FP signal in the absence of PI3-Kα and a compound. The IC50 was determined by fitting the FP signal vs. compound concentration to a sigmoidal dose response equation using GraphPad Prism curve fitting program.
# Chain of PI3-Kα (P42337 whole entry): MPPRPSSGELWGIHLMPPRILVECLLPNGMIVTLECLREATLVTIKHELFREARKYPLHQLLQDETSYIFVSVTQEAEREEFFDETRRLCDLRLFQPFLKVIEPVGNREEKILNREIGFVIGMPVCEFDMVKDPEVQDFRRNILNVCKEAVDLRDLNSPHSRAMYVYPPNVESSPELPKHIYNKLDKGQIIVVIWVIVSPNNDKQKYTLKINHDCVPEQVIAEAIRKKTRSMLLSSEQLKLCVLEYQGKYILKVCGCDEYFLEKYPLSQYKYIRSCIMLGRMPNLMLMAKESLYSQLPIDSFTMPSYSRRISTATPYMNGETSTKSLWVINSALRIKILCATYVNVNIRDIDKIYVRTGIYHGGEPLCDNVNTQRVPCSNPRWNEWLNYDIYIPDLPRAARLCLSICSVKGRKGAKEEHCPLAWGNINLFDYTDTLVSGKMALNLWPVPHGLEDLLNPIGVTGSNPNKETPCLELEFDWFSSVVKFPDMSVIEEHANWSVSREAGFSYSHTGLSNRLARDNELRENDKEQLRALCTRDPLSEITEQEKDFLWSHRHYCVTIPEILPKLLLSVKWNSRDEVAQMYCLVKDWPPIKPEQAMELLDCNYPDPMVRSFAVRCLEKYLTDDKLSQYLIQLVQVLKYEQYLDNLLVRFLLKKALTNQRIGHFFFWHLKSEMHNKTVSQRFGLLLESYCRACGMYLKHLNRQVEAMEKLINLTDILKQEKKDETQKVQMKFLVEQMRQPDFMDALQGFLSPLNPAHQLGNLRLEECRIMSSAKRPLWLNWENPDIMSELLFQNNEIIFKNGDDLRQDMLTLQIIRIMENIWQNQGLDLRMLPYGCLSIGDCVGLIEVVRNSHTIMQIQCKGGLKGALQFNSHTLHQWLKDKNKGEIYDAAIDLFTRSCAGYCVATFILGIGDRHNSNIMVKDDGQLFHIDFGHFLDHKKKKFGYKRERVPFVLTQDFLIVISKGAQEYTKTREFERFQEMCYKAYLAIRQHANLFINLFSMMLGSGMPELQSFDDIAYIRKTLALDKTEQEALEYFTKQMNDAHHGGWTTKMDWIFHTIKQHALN
# Chain of PI3-Kα (P26450 whole entry partner): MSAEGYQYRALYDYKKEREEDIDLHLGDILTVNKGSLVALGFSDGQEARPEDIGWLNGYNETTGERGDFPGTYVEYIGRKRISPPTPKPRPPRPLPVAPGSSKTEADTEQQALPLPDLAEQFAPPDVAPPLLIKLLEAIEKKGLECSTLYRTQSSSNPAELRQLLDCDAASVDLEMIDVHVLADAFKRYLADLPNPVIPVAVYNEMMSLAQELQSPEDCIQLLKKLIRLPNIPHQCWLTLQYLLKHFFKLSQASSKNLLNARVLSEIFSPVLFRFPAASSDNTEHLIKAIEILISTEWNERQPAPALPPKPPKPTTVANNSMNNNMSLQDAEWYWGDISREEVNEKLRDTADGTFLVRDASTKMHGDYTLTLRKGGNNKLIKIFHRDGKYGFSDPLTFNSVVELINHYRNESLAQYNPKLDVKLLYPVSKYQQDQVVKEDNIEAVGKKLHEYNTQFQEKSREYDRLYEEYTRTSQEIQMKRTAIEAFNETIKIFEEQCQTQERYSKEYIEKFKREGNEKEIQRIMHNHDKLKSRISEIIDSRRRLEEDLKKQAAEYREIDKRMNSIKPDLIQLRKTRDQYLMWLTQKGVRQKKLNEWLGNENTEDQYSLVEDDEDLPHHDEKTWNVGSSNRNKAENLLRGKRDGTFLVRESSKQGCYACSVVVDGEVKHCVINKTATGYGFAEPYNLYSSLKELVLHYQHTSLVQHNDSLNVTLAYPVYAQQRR
row,SMILES,IC50
1,"CNc1nc(C)c2cc(-c3cnc(N)c(OC[C@H](C)N)n3)c(=O)n(C3CCCC3)c2n1 [Compound 103, 6-(5-amino-6-{[(2S)-2-aminopropyl]oxy}pyrazin-2-yl)-8-cyclopentyl-4-methyl-2-(methylamino)pyrido[2,3-d]pyrimidin-7(8H)-one]",0.4 µM
2,"CNc1nc(C)c2cc(-c3cnn(CCO)c3)c(=O)n(C3CCCC3)c2n1 [Compound 105, 8-Cyclopentyl-6-(1-(2-hydroxyethyl)-1H-pyrazol-4-yl)-4-methyl-2-(methylamino)pyrido[2,3-d]pyrimidin-7(8H)-one]",0.024 µM
3,"Cc1nc(N)nc2c1cc(-c1cn[nH]c1)c(=O)n2N1CCCC1 [Compound 193, 2-Amino-4-methyl-6-(1H-pyrazol-4-yl)-8-(pyrrolidin-1-yl)pyrido[2,3-d]pyrimidin-7(8H)-one]",0.028 µM
4,"COc1ccc(-c2cc3c(C)nc(N)nc3n(N3CCCC3)c2=O)cn1 [Compound 195, 2-amino-6-(6-methoxypyridin-3-yl)-4-methyl-8-(pyrrolidin-1-yl)pyrido[2,3-d]pyrimidin-7(8H)-one]",0.023 µM
5,"Cc1nc(N)nc2c1cc(-c1cn[nH]c1)c(=O)n2C1CC1 [Compound 211, 2-amino-8-cyclopropyl-4-methyl-6-(1H-pyrazol-4-yl)pyrido[2,3-d]pyrimidin-7(8H)-one]",0.078 µM
6,"COc1ccc(-c2cc3c(C)nc(N)nc3n(C3CC3)c2=O)cn1 [Compound 212, 2-amino-8-cyclopropyl-6-(6-methoxypyridin-3-yl)-4-methylpyrido[2,3-d]pyrimidin-7(8H)-one]",0.056 µM
7,"COc1ncc(-c2cc3c(C)nc(N)nc3n(C3CCOCC3)c2=O)cc1F [Compound 265, 2-amino-6-(5-fluoro-6-methoxypyridin-3-yl)-4-methyl-8-(tetrahydro-2H-pyran-4-yl)pyrido[2,3-d]pyrimidin-7(8H)-one]",0.00143 µM
8,"CCn1nccc1NC(=O)c1cc2c(C)nc(N)nc2n(C(C)C)c1=O [Compound 280, 2-amino-N-(1-ethyl-1H-pyrazol-5-yl)-8-isopropyl-4-methyl-7-oxo-7,8-dihydropyrido[2,3-d]pyrimidine-6-carboxamide]",0.0039 µM
9,"COc1ncc(-c2cc3c(C)nc(N)nc3n([C@H]3CC[C@@H](OCCO)CC3)c2=O)cc1F [Compound 294, 2-amino-6-(5-fluoro-6-methoxypyridin-3-yl)-8-[cis-4-(2-hydroxyethoxy)cyclohexyl]-4-methylpyrido[2,3-d]pyrimidin-7(8H)-one]",0.0026 µM

# Same assay, conditions: at 10 μM
row,SMILES,inhibition at 10 µM
1,"CNc1nc(C)c2cc(-c3cc(CN)ccc3F)c(=O)n(C3CCCC3)c2n1 [Compound 104, 6-(5-(Aminomethyl)-2-fluorophenyl)-8-cyclopentyl-4-methyl-2-(methylamino)pyrido[2,3-d]pyrimidin-7(8H)-one]",43%
